Assay: xn = mol fraction of the nth substance listed
Conditions: 101 kPa, Liquid; for viscosity: Falling or rolling sphere viscometry; for mass density: Vibrating tube method

CCCC(=O)OCC [ethyl butanoate] + CCCO
Conditions	mass density, 288.15 K [kg/m3]	mass density, 293.15 K [kg/m3]	mass density, 298.15 K [kg/m3]	mass density, 303.15 K [kg/m3]	viscosity, 288.15 K [mPa·s]	viscosity, 293.15 K [mPa·s]	viscosity, 298.15 K [mPa·s]	viscosity, 303.15 K [mPa·s]
x1 = 0.1001	819.96	815.72	811.45	807.15	1.784	1.599	1.438	1.3
x1 = 0.2	830.48	826.03	821.55	817.04	1.392	1.262	1.147	1.048
x1 = 0.2999	839.77	835.14	830.49	825.81	1.151	1.054	0.9686	0.8932
x1 = 0.3994	848.08	843.3	838.5	833.68	1.008	0.9293	0.8586	0.7965
x1 = 0.4999	855.6	850.69	845.76	840.81	0.9046	0.8397	0.7808	0.727
x1 = 0.6002	862.45	857.44	852.4	847.35	0.8354	0.779	0.7275	0.68
x1 = 0.6998	868.56	863.46	858.34	853.2	0.7874	0.737	0.6906	0.6481
x1 = 0.8001	874.16	868.99	863.8	858.59	0.7517	0.706	0.6636	0.624
x1 = 0.9001	879.26	874.03	868.79	863.53	0.7286	0.6861	0.6465	0.6098
x1 = 1	884.16	878.9	873.62	868.33	0.7224	0.6808	0.643	0.6072
